Molecular target: Human Factor D (Homo sapiens (Human), UniProt P00746)
Test: Human Factor D Assay
Assay type: biochemical
Details: Human Factor D 80 nM, substrate Z-L-Lys-SBzl, DTNB, A405; read-out: IC50 (Stars)
Outline: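 Serum-purified enzyme (80 nM final) was preincubated with compound 5 min at room temperature in 50 mM Tris, 1M NaCl, pH 7.5. Z-L-Lys-SBzl and DTNB ([…] each, final) were added and A405 followed every 30 s for 30 min; IC50 from nonlinear regression of reaction rates.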

Sequence of Human Factor D (P00746 26-253): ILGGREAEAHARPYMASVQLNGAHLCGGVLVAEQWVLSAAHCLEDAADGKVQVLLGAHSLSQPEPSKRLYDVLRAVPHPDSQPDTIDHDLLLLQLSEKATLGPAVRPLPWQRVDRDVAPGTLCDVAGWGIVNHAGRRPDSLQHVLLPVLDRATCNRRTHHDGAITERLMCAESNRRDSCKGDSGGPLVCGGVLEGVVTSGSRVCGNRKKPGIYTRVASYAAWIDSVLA

Compound | IC50
Cc1ncc(-c2cc3c4c(c2)c(C#N)nn4CC(=O)N2[C@H](C(=O)Nc4nc(C(F)(F)F)ccc4C)C[C@@]4(COCC=CCCC3)C[C@@H]24)cn1 [Compound T-154] | < 1000 nM
CC(=O)c1nn2c3c(cc(-c4cnc(C)nc4)cc13)CC=CCCC(C)(C)C(=O)NC[C@@]13C[C@@H](C(=O)Nc4ccn(CC(F)(F)F)n4)N(C(=O)C2)[C@@H]1C3 [Compound T-184] | < 1000 nM
Cc1ncc(-c2cc3c4c(c2)c(C(N)=O)nn4CC(=O)N2[C@H](C(=O)Nc4nc(C(F)(F)F)ccc4C)C[C@@]4(COCCCCCCC3)C[C@@H]24)cn1 [Compound T-187] | < 1000 nM
(41R,43S,45R)-42-(2-(3-acetyl-5-(2- methylpyrimidin-5-yl)-1H-indazol-1- yl)acetyl)-16-bromo-6-methyl-7-thia-42,6- diaza-1(2,3)-pyridina-4(3,5)- bicyclo[3.1.0]hexanacycloundecaphan-10- en-3-one 7,7-dioxide [Compound T-17] | < 1000 nM
CC(=O)c1nn2c3c(cc(-c4cnc(C)nc4)cc13)CCCCCCC(=O)NC[C@@]13C[C@@H](C(=O)N[C@H](C)CC(C)(C)C)N(C(=O)C2)[C@@H]1C3 [Compound T-231] | < 1000 nM
CC(=O)c1nn(CC(=O)N2[C@H]3C[C@@]4(CNS(=O)(=O)CCC=Cc5ccc(Br)nc5NC3=O)C[C@@H]24)c2cnccc12 [Compound T-16, (41R,43S,45R)-42-(2-(3-acetyl-1H-pyrazolo[3,4-c]pyridin-1-yl)acetyl)-16-bromo-7-thia-42,2,6-triaza-1(2,3)-pyridina-4(3,5)-bicyclo[3.1.0]hexanacycloundecaphan-10-en-3-one 7,7-dioxide] | < 1000 nM
CC(=O)c1nn(CC(=O)N2C[C@@]3(F)COCCCCCCc4ccc(Br)nc4NC(=O)[C@@H]2C3)c2cnc(-c3cnc(C)nc3)cc12 [Compound T-179] | < 1000 nM
CC(=O)c1nn2c3c(cc(-c4cnc(C)nc4)cc13)CCCCCC(=O)N(C)C[C@@]13C[C@@H](C(=O)Nc4nc(C(F)(F)F)ccc4C)N(C(=O)C2)[C@@H]1C3 [Compound T-125] | < 1000 nM
CC(=O)c1nn(CC(=O)N2[C@H]3C[C@@]4(C=CCCC5=NN=C(Cc6ccc(Br)nc6NC3=O)O5)C[C@@H]24)c2cnc(-c3cnc(C)nc3)cc12 [Compound T-47] | < 1000 nM
CC(=O)c1nn(CC(=O)N2C[C@@]3(F)COCCCCOCc4ccc(Br)nc4NC(=O)[C@@H]2C3)c2cnc(-c3cnc(C)nc3)cc12 [Compound T-161] | < 1000 nM
CC(=O)c1nn2c3c(cc(-c4cnc(C)nc4)cc13)CCCCCCC(=O)NC[C@@]13C[C@@H](C(=O)Nc4cc(C)c(F)c(Br)n4)N(C(=O)C2)[C@@H]1C3 [Compound T-218] | < 1000 nM
CC(=O)c1nn2c3c(cc(-c4cnc(C)nc4)cc13)CCCCC[C@@H](C)C(=O)N(C)C[C@@]13C[C@@H](C(=O)Nc4nc(C(F)(F)F)ccc4C)N(C(=O)C2)[C@@H]1C3 [Compound T-205] | < 1000 nM
CC(=O)c1nn2c3c(cc(-c4cnc(C)nc4)cc13)CC=CCCCC(=O)NC[C@@]13C[C@@H](C(=O)NCc4cccc(Cl)c4F)N(C(=O)C2)[C@@H]1C3 [Compound T-82] | < 1000 nM
CC(=O)c1nn2c3c(cc(-c4cnc(C)nc4)cc13)CCCCCCCCOC[C@@]13C[C@@H](C(=O)Nc4nc(Br)ccc4C)N(C(=O)C2)[C@@H]1C3 [Compound T-23, (41R,43S,45S)-13-acetyl-N-(6-bromo-3-methylpyridin-2-yl)-15-(2-methylpyrimidin-5-yl)-3-oxo-11H-6-oxa-42-aza-1(1,7)-indazola-4(2,5)-bicyclo[3.1.0]hexanacyclotetradecaphane-43-carboxamide] | < 1000 nM
CC(=O)N[C@@H]1CC=CCOCc2ccc(Br)nc2NC(=O)[C@@H]2C[C@]3(C[C@H]3N2C(=O)Cn2nc(C(C)=O)c3cc(-c4cnc(C)nc4)ccc32)CN(C)C1=O [Compound T-96] | < 1000 nM
CC(=O)c1nn(CC(=O)N2C[C@@]3(F)CNC(=O)C(C)(C)CC=CCOCc4ccc(Br)nc4NC(=O)[C@@H]2C3)c2cnc(-c3cnc(C)nc3)cc12 [Compound T-170] | < 1000 nM
